Reference: PMC6950567, “Evaluation of Marine Diindolinonepyrane in Vitro and in Vivo: Permeability Characterization in Caco-2 Cells Monolayer and Pharmacokinetic Properties in Beagle Dogs” (Marine Drugs, 2019)
Entries after “also recorded” stand apart in the source; their conditions may differ. Where two headings read alike, the source gives them in different places.

Assays:
[1] = Caco-2 cells monolayer absorption and bidirectional transport experiment; type: in vitro ADME, human; details: human
Experimental: (§1) The samples included three control drugs (fenoterol, propranolol, and digoxin) and 2,5-BHPA. […] For transfer in the AP→BL direction, 0.075 mL drug solution was added to the AP side as the supply pool, and 0.25 mL HBSS solution was added to the BL side as the receiving pool. In the BL→AP direction, 0.25 mL compound solution was added to the BL side as the supply pool, and 0.075 mL HBSS solution was added to the AP side as the receiving pool. The transwell plate was then cultured in an incubator at 37 °C for 2 h. Samples on the AP side and BL side were collected, respectively. Then, acetonitrile containing an internal label was added to each upper chamber to lyse transport membranes. The total recovery was calculated by collecting the amount of lead compound absorbed on the membrane surface or accumulated in the cell. Finally, the concentration of each sample was calculated as the ratio of the peak area between the compound and the inner target through mass spectrum analysis (API 4000).
(§2) Papp = (dCr/dt) × Vr/(A × C0)(2) where dCr/dt is the cumulative compound concentration per unit of time (µM/s); Vr is the volume in the receiving hole (mL); A is the transport membrane area; and C0 is the compound initiation concentration (µM).

Caco-2 cells monolayer = assay: as above; type: in vitro ADME, human
Experimental: as §1, §2

[2] = Pharmacokinetics after intravenous injection in beagle dogs; type: in vivo; details: for Cmax / MRT / clearance / half-life: male, dog, whole blood
Experimental: Male beagle dogs (SPF, 10.2–10.8 kg, aged 2 years) were provided by the Xingang Experimental Animal Co., Ltd. (Shanghai, China). All dogs were fed with standard laboratory food and water ad libitum at least 3 days prior to the experiments in an environmentally controlled room (12 h dark-light cycle; ~25 °C, 60% humidity, GB14925-2001). All protocols and procedures were approved by the Institutional Animal Care and Use Committee of Shanghai Ocean University (Approval number: 13-0012). The blood and tissues of the dogs were removed while the dogs were ether anesthetized. Their plasma was collected from the fossa orbitalis vein. Every effort was made to minimize animal pain and suffering.
2,5-BHPA was dissolved in normal saline with NaHCO3 as a solvent (2,5-BHPA/NaHCO3, m/m, 1:1), which was agitated overnight on a magnetic stirrer. Subsequently, it was diluted to different concentrations, filtered, and stored in a refrigerator at 4 °C. The dose was adjusted according to the body weight of the beagle dogs in a volume of 200 µL, and 2,5-BHPA was administered by intravenous injection (7.5, 5.0, and 2.5 mg/kg). Subcutaneous injection in the forearm was used in the experiment.
Nine dogs were randomly divided into three groups (n = 3) and fasted for 24 h with water ad libidum. 2,5-BHPA was administered by intravenous injection (7.5, 5.0, and 2.5 mg/kg). The volume of the three sample levels was identical. The blood samples of 200 µL were drawn at 0, 1, 5, 15, 30, 40, 60, 120, and 240 min after drug treatment, and the samples were immediately stored with 1.8 mL of methanol (methanol:blood = 9:1, v/v). The samples were mixed and centrifuged at 5000× g for 15 min at RT, and the supernatants were filtered for HPLC analysis.
The data were processed with Microsoft Excel 2013 edited by Microsoft (Seattle, WA, USA) and SPSS V25.0 edited by SPSS (Chicago, IL, USA). PKsolver V2.0 edited by China Pharmaceutical University (Nanjing, China) was used to calculate the pharmacokinetic parameters and the compartment model. The image was processed with Origin 9.0 software edited by Origin Lab (Northampton, MA, USA).

[3] = 5 µM, 0.1% bull serum albumin added
[4] = 15 µM, 0.1% bull serum albumin added
[5] = 25 µM, 0.1% bull serum albumin added
[6] = beagle dogs, intravenous, 2.5 mg·kg^−1
[7] = beagle dogs, intravenous, 5.0 mg·kg^−1
[8] = beagle dogs, intravenous, 7.5 mg·kg^−1

CC(C)=CCCC(C)=CCCC1(C)Oc2c(c(O)cc3c2CN(CCCC(C(=O)O)N2Cc4c(cc(O)c5c4OC(C)(CCC=C(C)CCC=C(C)C)C(O)C5)C2=O)C3=O)CC1O (stereo not shown) [2,5-BHPA, 2,5-Bis-[8-(4,8-dimethyl-nona-3,7-dienyl)-5,7-dihydroxy-8-methyl-3-keto-1,2,7,8-tertahydro-6H-pyran[a]isoindol-2-yl]-pentanoic acid]
efflux ratio at 2 h, 0.5 µM ([1]; Caco-2, 0.5 μM, no BSA): 1.13
Papp A→B at 2 h, 0.5 µM ([1]; Caco-2, 0.5 μM, no BSA, 2 h, read-out: Mean Papp AP to BL): 0.493 ± 0.016 ×10⁻⁶ cm/s
Papp B→A at 2 h, 0.5 µM ([1]; Caco-2, 0.5 μM, no BSA, 2 h, read-out: Mean Papp BL to AP): 0.555 ± 0.09 ×10⁻⁶ cm/s
efflux ratio at 2 h, 2 µM ([1]; Caco-2, 2 μM, no BSA): 1.55
Papp A→B at 2 h, 2 µM ([1]; Caco-2, 2 μM, no BSA, 2 h, read-out: Mean Papp AP to BL): 0.048 ± 0.006 ×10⁻⁶ cm/s
Papp B→A at 2 h, 2 µM ([1]; Caco-2, 2 μM, no BSA, 2 h, read-out: Mean Papp BL to AP): 0.065 ± 0.005 ×10⁻⁶ cm/s
efflux ratio at 2 h, 5 µM ([1]; Caco-2, 5 µM, 0.1% bull serum albumin added): 1.56
Papp A→B at 2 h, 5 µM ([1]; Caco-2, 5 µM, 0.1% bull serum albumin added, read-out: Mean Papp AP to BL): 0.097 ± 0.005 ×10⁻⁶ cm/s
Papp B→A at 2 h, 5 µM ([1]; Caco-2, 5 µM, 0.1% bull serum albumin added, read-out: Mean Papp BL to AP): 0.153 ± 0.012 ×10⁻⁶ cm/s
efflux ratio at 2 h, 5 µM ([1]; Caco-2, 5 μM, no BSA): 1.06
Papp A→B at 2 h, 5 µM ([1]; Caco-2, 5 μM, no BSA, 2 h, read-out: Mean Papp AP to BL): 0.044 ± 0.003 ×10⁻⁶ cm/s
Papp B→A at 2 h, 5 µM ([1]; Caco-2, 5 μM, no BSA, 2 h, read-out: Mean Papp BL to AP): 0.043 ± 0.004 ×10⁻⁶ cm/s
efflux ratio at 2 h, 15 µM ([1]; Caco-2, 15 µM, 0.1% bull serum albumin added): 2.91
Papp A→B at 2 h, 15 µM ([1]; Caco-2, 15 µM, 0.1% bull serum albumin added, read-out: Mean Papp AP to BL): 0.045 ± 0.002 ×10⁻⁶ cm/s
Papp B→A at 2 h, 15 µM ([1]; Caco-2, 15 µM, 0.1% bull serum albumin added, read-out: Mean Papp BL to AP): 0.132 ± 0.035 ×10⁻⁶ cm/s
efflux ratio at 2 h, 25 µM ([1]; Caco-2, 25 µM, 0.1% bull serum albumin added): 1.49
Papp A→B at 2 h, 25 µM ([1]; Caco-2, 25 µM, 0.1% bull serum albumin added, read-out: Mean Papp AP to BL): 0.146 ± 0.009 ×10⁻⁶ cm/s
Papp B→A at 2 h, 25 µM ([1]; Caco-2, 25 µM, 0.1% bull serum albumin added, read-out: Mean Papp BL to AP): 0.216 ± 0.031 ×10⁻⁶ cm/s
Papp at 2 h ([1]; Caco-2, text summary of Table 2, 0.1% BSA added, read-out: Papp, AP→BL or BL→AP direction): ≤ 2.5 ×10⁻⁶ cm/s
recovery at 2 h ([1]; Caco-2, text summary of Table 2, 0.1% BSA added, read-out: total recovery rate): > 90%
Papp at 2 h ([1]; Caco-2, text summary, no BSA, over the concentrations tested, read-out: Papp range): 0.04 to 0.49 ×10⁻⁶ cm/s
recovery at 2 h ([1]; Caco-2, text summary, no BSA, over the concentrations tested, read-out: total recovery rate AP→BL): 35.8 to 52.4%
recovery at 2 h ([1]; Caco-2, text summary, no BSA, over the concentrations tested, read-out: total recovery rate BL→AP): 25.9 to 53%
Recoveries AP to BL (Caco-2 cells monolayer; 0.5 μM, no BSA): 8.745 ± 0.155%
Recoveries BL to AP (Caco-2 cells monolayer; 0.5 μM, no BSA): 25.54 ± 1.55%
Total Recoveries AP to BL (Caco-2 cells monolayer; 0.5 μM, no BSA): 35.77 ± 1.29%
Total Recoveries BL to AP (Caco-2 cells monolayer; 0.5 μM, no BSA): 25.48 ± 1.13%
transport mechanism in the Caco-2 model (Caco-2 cells monolayer; 2 µM to 25 µM): may involve passive diffusion
Recoveries AP to BL (Caco-2 cells monolayer; 2 μM, no BSA): 13.419 ± 0.566%
Recoveries BL to AP (Caco-2 cells monolayer; 2 μM, no BSA): 47.16 ± 1.32%
Total Recoveries AP to BL (Caco-2 cells monolayer; 2 μM, no BSA): 39.67 ± 1.47%
Total Recoveries BL to AP (Caco-2 cells monolayer; 2 μM, no BSA): 47.69 ± 2.10%
Recoveries AP to BL (Caco-2 cells monolayer; [3]): 85.52 ± 2.34%
Recoveries BL to AP (Caco-2 cells monolayer; [3]): 96.32 ± 5.15%
Total Recoveries AP to BL (Caco-2 cells monolayer; [3]): 92.83 ± 3.44%
Total Recoveries BL to AP (Caco-2 cells monolayer; [3]): 96.41 ± 3.52%
Recoveries AP to BL (Caco-2 cells monolayer; 5 μM, no BSA): 26.76 ± 1.02%
Recoveries BL to AP (Caco-2 cells monolayer; 5 μM, no BSA): 52.42 ± 2.20%
Total Recoveries AP to BL (Caco-2 cells monolayer; 5 μM, no BSA): 52.34 ± 4.34%
Total Recoveries BL to AP (Caco-2 cells monolayer; 5 μM, no BSA): 53.02 ± 2.01%
Recoveries AP to BL (Caco-2 cells monolayer; [4]): 84.85 ± 3.36%
Recoveries BL to AP (Caco-2 cells monolayer; [4]): 96.18 ± 6.56%
Total Recoveries AP to BL (Caco-2 cells monolayer; [4]): 92.83 ± 4.26%
Total Recoveries BL to AP (Caco-2 cells monolayer; [4]): 96.97 ± 4.32%
Recoveries AP to BL (Caco-2 cells monolayer; [5]): 82.25 ± 2.28%
Recoveries BL to AP (Caco-2 cells monolayer; [5]): 89.52 ± 4.19%
Total Recoveries AP to BL (Caco-2 cells monolayer; [5]): 90.91 ± 4.63%
Total Recoveries BL to AP (Caco-2 cells monolayer; [5]): 89.63 ± 3.26%
permeability classification (Caco-2 cells monolayer; Papp ≤ 2.5 (×10^−6 cm·s^−1) indicated low permeability): low permeability
K10 [2, 6]: 0.055 ± 0.021 min⁻¹
K12 [2, 6]: 0.009 ± 0.004 min⁻¹
K21 [2, 6]: 0.018 ± 0.001 min⁻¹
K10 [2, 7]: 0.075 ± 0.012 min⁻¹
K12 [2, 7]: 0.017 ± 0.002 min⁻¹
K21 [2, 7]: 0.018 ± 0.001 min⁻¹
K10 [2, 8]: 0.051 ± 0.015 min⁻¹
K12 [2, 8]: 0.007 ± 0.004 min⁻¹
K21 [2, 8]: 0.017 ± 0.003 min⁻¹
compartment model of plasma concentration-time curves ([2]; beagle dogs, intravenous, 7.5, 5.0, 2.5 mg·kg^−1, weight = 1/c^2): fitted well to a two-compartment model; also recorded: consistent with the two-compartment model
half-life (T1/2) in dogs compared with rats ([2]; dogs (this study) versus rats [14]): about two times longer than in rats
dose linearity of pharmacokinetics ([2]; dogs, intravenous, dose range 2.5-7.5 mg/kg, from CL and MRT): linear pharmacokinetic characteristics
Cmax [2, 6]: 13600 ± 2760 ng/mL
MRT [2, 6]: 28.7 min
clearance [2, 6]: 9.2 ± 0.6 mL/min/kg
half-life [2, 6]: 49 ± 2 min
Cmax [2, 7]: 48600 ± 5530 ng/mL
MRT [2, 7]: 26.2 min
clearance [2, 7]: 7.1 ± 0.8 mL/min/kg
half-life [2, 7]: 48 ± 2 min
Cmax [2, 8]: 56500 ± 6230 ng/mL
MRT [2, 8]: 28.2 min
clearance [2, 8]: 6.2 ± 0.4 mL/min/kg
half-life [2, 8]: 49 ± 2 min
